Measurements reported in patent publication US5140015A, “2-aralkoxy and 2-alkoxy adenosine derivatives as coronary vasodilators and antihypertensive agents” (Whitby Research, Inc., priority 1990, dated 1992).
Read-outs that look alike come from different tables or passages of the source.

Legend:
Design in all cases: species or system guinea pig (female Sprague-Dawley)
[1] = target: T1, A2 receptor of the coronary artery (Cavia porcellus, UniProt P46616); experiment: Coronary flow increase in isolated perfused heart (Langendorff preparation)
T1 construct: perfused hearts from female Sprague-Dawley guinea pigs in an isolated Langendorff heart preparation; from tissue; host or cells: isolated perfused guinea pig heart (Langendorff), coronary vasculature
T1 sequence (P46616 whole entry, the tested form may be a part): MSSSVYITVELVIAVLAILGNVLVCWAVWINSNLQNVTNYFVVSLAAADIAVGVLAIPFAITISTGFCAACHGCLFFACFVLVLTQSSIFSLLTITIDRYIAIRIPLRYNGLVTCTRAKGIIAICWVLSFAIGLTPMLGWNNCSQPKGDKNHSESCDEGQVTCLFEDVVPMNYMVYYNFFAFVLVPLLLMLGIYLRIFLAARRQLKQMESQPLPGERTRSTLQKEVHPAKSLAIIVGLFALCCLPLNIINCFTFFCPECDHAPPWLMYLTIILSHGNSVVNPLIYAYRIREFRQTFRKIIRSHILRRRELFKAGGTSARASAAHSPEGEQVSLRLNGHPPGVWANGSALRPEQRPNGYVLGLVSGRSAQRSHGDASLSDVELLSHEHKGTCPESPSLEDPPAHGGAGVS
Experimental: (§1) Assays of the cardiovascular potency of the above compounds at the A1 receptors of the SA node and at the A2 receptor of the coronary artery employed perfused hearts from female Sprague-Dawley guinea pigs in an isolated Langendorff heart preparation. An assay consists of an infusion of a spectophotometrically standardized solution of test compound directly into the aortic cannula at rates increasing stepwise every 5 minutes. Collection of the total cardiac effluent during the first half of each infusion period provides a measure of coronary flow (A2 effect). The concentration of test compound required to produce a half-maximal increase in coronary flow is determined. Registration of the ECG assesses the effect of the test compound on SA node (stimulus to Q interval, A1 effect). The concentration of test compound required to produce a half-maximal prolongation of stimulus to Q interval is determined. […] The ratio of A1 and A2 effects of test compounds are calculated to provide the selectivity ratio.

[2] = target: T2, A1 receptors of the SA node (Cavia porcellus, UniProt P47745); experiment: SQ (stimulus to Q interval) prolongation in isolated perfused heart (Langendorff preparation); conditions: isolated perfused guinea pig heart; concentration for half-maximal prolongation of stimulus to Q interval; read-out: SQ Prolongation (A1) ED50
T2 construct: perfused hearts from female Sprague-Dawley guinea pigs in an isolated Langendorff heart preparation; from tissue; host or cells: isolated perfused guinea pig heart (Langendorff), nodal tissue
T2 sequence (P47745 1-326): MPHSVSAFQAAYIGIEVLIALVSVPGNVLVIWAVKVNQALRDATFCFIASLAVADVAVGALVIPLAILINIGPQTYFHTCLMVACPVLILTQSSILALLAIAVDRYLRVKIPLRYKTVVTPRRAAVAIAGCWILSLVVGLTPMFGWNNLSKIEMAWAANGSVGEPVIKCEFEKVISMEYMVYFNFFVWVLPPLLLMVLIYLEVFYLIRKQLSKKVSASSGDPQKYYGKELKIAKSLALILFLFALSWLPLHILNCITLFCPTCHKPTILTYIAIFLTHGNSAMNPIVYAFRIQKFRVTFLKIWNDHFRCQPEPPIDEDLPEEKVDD
Experimental: as §1

[3] = test system: A2 receptor of the coronary artery; experiment: Coronary flow increase in isolated perfused heart (Langendorff preparation); conditions: ratio of A1 (SQ prolongation) and A2 (coronary flow) effects
Experimental: as §1

[4] = isolated perfused guinea pig heart, concentration for half-maximal increase in coronary flow, stepwise infusion every 5 minutes, read-out: Coronary Blood Flow Increase (A2) EC50

Compound | EC50 [1, 4] [µM] | EC50 [2] [µM] | also measured
COc1cc(CCOc2nc(N)c3ncn([C@@H]4O[C@H](CO)[C@@H](O)[C@H]4O)c3n2)cc(OC)c1OC [Example 12, 2-[2-(3,4,5-trimethoxyphenyl)ethoxy]adenosine] | 0.022 |  | 
Nc1nc(OCCc2ccsc2)nc2c1ncn2[C@@H]1O[C@H](CO)[C@@H](O)[C@H]1O [Example 14, 2-[2-(3-thienyl)ethoxy]adenosine] |  | 18.8 | 
Nc1nc(OCCCCc2ccccc2)nc2c1ncn2[C@@H]1O[C@H](CO)[C@@H](O)[C@H]1O [Example 20, 2-(4-phenyl-1-butoxy)adenosine] |  | 7.36 | EC50 [1]: 0.0099 µM
Nc1nc(OCCCc2ccccc2)nc2c1ncn2[C@@H]1O[C@H](CO)[C@@H](O)[C@H]1O [Example 1, 2-(3-phenyl-1-propoxy)adenosine] | 0.0613 |  | 
Nc1nc(OCCc2ccccc2)nc2c1ncn2[C@@H]1O[C@H](CO)[C@@H](O)[C@H]1O [Example 7, 2-(2-phenylethoxy)adenosine] | 0.0028 |  | 
Nc1nc(OCCC2CCCCC2)nc2c1ncn2[C@@H]1O[C@H](CO)[C@@H](O)[C@H]1O [Example 5, 2-(2-Cyclohexylethoxy)adenosine] |  | 8.63 | 
Nc1nc(OCCc2cccs2)nc2c1ncn2[C@@H]1O[C@H](CO)[C@@H](O)[C@H]1O [Example 13, 2-[2-(2-thienyl)ethoxy]adenosine] |  |  | EC50 [1]: 0.0037 µM
CC[C@H](COc1nc(N)c2ncn([C@@H]3O[C@H](CO)[C@@H](O)[C@H]3O)c2n1)c1ccccc1 [Example 19, 2-[(2S)-phenyl-1-butoxy]adenosine] | 0.0314 | 27.4 | 
CC(COc1nc(N)c2ncn([C@@H]3O[C@H](CO)[C@@H](O)[C@H]3O)c2n1)c1ccccc1 (stereo partly drawn) [Example 17, 2-(2-phenyl-1-propoxy)adenosine] | 0.009 | 53.1 | 
COc1cccc(CCOc2nc(N)c3ncn([C@@H]4O[C@H](CO)[C@@H](O)[C@H]4O)c3n2)c1 [Example 9, 2-[2-(3-methoxyphenyl)ethoxy]adenosine] | 0.0026 |  | 
CCNC(=O)[C@H]1O[C@@H](n2cnc3c(N)nc(OCCc4ccccc4)nc32)[C@H](O)[C@@H]1O [Example 22, 2-(2-phenyl)ethoxy-5'-N-ethylcarboxamidoadenosine] | 0.0013 | 15 | 
COc1ccc(CCOc2nc(N)c3ncn([C@@H]4O[C@H](CO)[C@@H](O)[C@H]4O)c3n2)cc1 [Example 10, 2-[2-(4-methoxyphenyl)ethoxy]adenosine] | 0.0014 |  | 
Cc1ccccc1CCOc1nc(N)c2ncn([C@@H]3O[C@H](CO)[C@@H](O)[C@H]3O)c2n1 [Example 11, 2-[2-(2-methylphenyl)ethoxy]adenosine] | 0.0038 |  | 
Nc1nc(OC2CCCC2)nc2c1ncn2[C@@H]1O[C@H](CO)[C@@H](O)[C@H]1O [Example 3, 2-Cyclopentyloxyadenosine] | 0.0917 | 79.4 | 
Nc1nc(OCCCC2CCCCC2)nc2c1ncn2[C@@H]1O[C@H](CO)[C@@H](O)[C@H]1O [Example 23, 2-(3-cyclohexyl)propoxyadenosine] |  | 3.76 | 
Nc1nc(OCCc2ccc(F)cc2)nc2c1ncn2[C@@H]1O[C@H](CO)[C@@H](O)[C@H]1O [Example 2, 2-[2-(4-fluorophenyl)ethoxy]adenosine] | 0.0009 |  | 
CC[C@@H](COc1nc(N)c2ncn([C@@H]3O[C@H](CO)[C@@H](O)[C@H]3O)c2n1)c1ccccc1 [Example 18] |  |  | Selectivity (A1/A2) [3]: 50
Nc1nc(OC2CCCCC2)nc2c1ncn2[C@@H]1O[C@H](CO)[C@@H](O)[C@H]1O [Example 4, 2-Cyclohexyloxyadenosine] | 0.657 | 100 | 
Nc1nc(OCc2ccccc2)nc2c1ncn2[C@@H]1O[C@H](CO)[C@@H](O)[C@H]1O [Example 6, 2-benzyloxyadenosine] | 0.419 |  | Selectivity (A1/A2) [3]: 15
COc1ccccc1CCOc1nc(N)c2ncn([C@@H]3O[C@H](CO)[C@@H](O)[C@H]3O)c2n1 [Example 8, 2-[2-(2-methoxyphenyl)ethoxy]adenosine] | 0.032 |  | 
